Reference: paper PMC10305181, “A VEGFB-Based Peptidomimetic Inhibits VEGFR2-Mediated PI3K/Akt/mTOR and PLCγ/ERK Signaling and Elicits Apoptotic, Antiangiogenic, and Antitumor Activities” (Pharmaceuticals, 2023)
Where two headings read alike, the source gives them in different places. Bridge positions count the residues as written; N and C are the ends. Peptide text beside a SMILES is read from it.

Legend:
[1] = body weight / tolerability of treated 4T1 tumor-bearing mice; format: in vivo; settings: 0.2 mg·kg^−1 i.v. once every 2 days
Procedure: Figure 2 Loop formation is important for the antitumor activity of VGB3. (A) To investigate the efficacy of VGB3 peptides in vivo 13 days after transplantation of a 4T1 murine MCT into female BALB/c mice (the tumor volume ~150 mm^3), the treatment groups received 0.2 mg·kg^−1 (once every 2 days, i.v.) of either the C-VGB3 or L-VGB3 and the control group received PBS for 20 days. Error bars denote ± SEM. n = 6; **** p < 0.0001, ns = not significant; two-way ANOVA. (B) Investigation of C-VGB3 and L-VGB3 effects on mice weight. […] (C,D) Immunohistochemical (IHC) analyses of CD31 and Ki67 for the C-VGB3-, L-VGB3- and PBS-treated tumors. For IHC staining, the sections of tumor tissues were incubated with the primary mouse monoclonal antibodies for CD31 (1:2000 (v/v)) and Ki67 (5 µg·mL^−1). […] Photographs were taken at 40× magnification. Error bars denote ± SEM. n = 3; * 0.02 ≤ p ≤ 0.04, ns = not significant; one-way ANOVA.
The antitumor efficacy of the peptides was investigated as described previously. Thirteen days after implanting, tumor (~150 mm^3)-bearing mice were grouped randomly into control and treated animals (6/group). From day 13 to day 33, the treatment group received cyclic or linear VGB3 (0.2 mg·kg^−1), whereas the control group received an equal volume of PBS (i.v., once every two days). The volume of tumors was calculated as 0.52 × length × width^2. In addition, changes in the weight of animals were recorded every 2 days.

4T1 MCT cells = experiment: MTT assay, 4T1 MCT cells; format: cell-based, murine; settings: C-VGB3 0–1.81 μM, n = 3, read-out: IC50, proliferation
Procedure: Figure 5 Suppression of 4T1 cell proliferation and metastasis by C-VGB3 through blockade of VEGFR2 signaling pathways. (A) MTT assay was performed to investigate C-VGB3 effect on the proliferation of 4T1 tumor cells in vitro. C-VGB3 was used at concentrations 0–1.81 μM in the presence (20 ng·mL^−1) or the absence of VEGF. The control cells were treated with no peptide. After 24 and 48 h, the absorbance was measured at 570 nm utilizing an ELISA plate reader (Space Fax 2100, Awareness, Westport, CT, USA). Error bars represent ± SEM. n = 3; * p = 0.0 2, ** p = 0.001, *** and ### p = 0.0001, **** and #### p < 0.0001, ns = not significant; one-way ANOVA. (B) To evaluate the mechanism by which C-VGB3 diminished cell proliferation and metastasis, Western blot analysis was performed for 4T1 cells. […] Error bars represent ± SEM. n = 3; * p = 0.02, ** p = 0.001, *** p = 0.0001, **** p < 0.0001, ns = not significant; one-way ANOVA.
The effects of C-VGB3 and L-VGB3 on the cell survival of HUVE and 4T1 cell lines were investigated using the MTT assay, as previously described, with some modifications. […] After 24 and 48 h of incubation at 37 °C, the absorbance at 570 nm was recorded using an ELISA plate reader (Space Fax 2100, Awareness, Palm City, FL, USA). […]

HUVECs = experiment: tube formation assay on Matrigel, HUVECs; format: cell-based, human; settings: 0.40 μM; 12 h; VEGF 20 ng·mL^−1; n = 3; p < 0.001
Procedure: Figure 4 Inhibition of EC proliferation and tubulogenesis by C-VGB3 through abrogation of VEGFR2-mediated signaling pathways. (A) MTT assay was performed to investigate C-VGB3 effect on the proliferation of ECs. C-VGB3 (0–0.91 μM) was used with (20 ng·mL^−1) or without VEGF. The control cells were treated with no peptide. After 24 and 48 h, the absorbance was measured at 570 nm utilizing an ELISA plate reader (Space Fax 2100, Awareness, Westport, CT, USA). Error bars indicate ± SEM. n = 3; * p = 0.02, ** p = 0.001, *** and ### p = 0.0001, **** and #### p < 0.0001, ns = not significant; one-way ANOVA. (B) The anti-tubulogenesis effect of C-VGB3 in VEGF (20 ng·mL^−1)-induced HUVECs. Image analysis performed by Wimasis image analysis software is illustrated in the bottom panel. Error bars indicate ±SEM. n = 3; *** 0.0004 ≤ p ≤ 0.0001; unpaired Student’s t-test. To evaluate the mechanism by which C-VGB3 diminished cell proliferation and tube formation, Western blot analysis was performed for HUVECs. […] Error bars indicate ± SEM. n = 3; * p = 0.02, ** p = 0.001, *** p = 0.0001, **** p < 0.0001; one-way ANOVA. […] Error bars indicate ± SEM. n = 3; * p = 0.02, ** p = 0.001, **** p < 0.0001; one-way ANOVA.
Tube formation of HUVECs was assayed on the Matrigel. After pre-labeling with PKH26 cell tracker (Sigma-Aldrich, St. Louis, MO, USA) HUVECs were plated into 24-well plates pre-coated with Matrigel Basement Membrane Matrix (BD Biosciences, San Jose, CA, USA). C-VGB3 (0.40 μM) was added to the medium, and images were manually captured after 12 h using an Olympus BX-51 fluorescence microscope. Quantitative analyses were performed by Wimasis online software.

4T1 cells = experiment: Annexin V/PI flow cytometry, 4T1 cells; format: cell-based, murine; settings: 0.40 μM, 24 h, VEGF 20 ng·mL^−1; control 1.80; n = 3; p < 0.0001
Procedure: An important consequence of VEGF signals is cell survival dominantly via PI3K/AKT/mTOR pathway. Thus, inhibition of VEGF signals leads to the induction of apoptosis. Accordingly, the ability of C-VGB3 to induce apoptosis was investigated. First, apoptotic endothelial and tumor cells were analyzed by flow cytometry after staining with annexin V-FITC and PI. (Figure 6A). Treatment with C-VGB3 (0.40 μM) induced significant apoptosis in both cell lines compared to the controls. […] Apoptosis induction by C-VGB3 was further characterized by the TUNEL assay, as an indicator of late apoptosis, with a confocal microscope (Figure 6B).
Annexin V/Propidium Iodide flow cytometry was performed to investigate the C-VGB3 effect on apoptosis induction, as previously described, with some modifications. […]

For `CC(C)C[C@@H]1NC(=O)CNC(=O)[C@H](CC(=O)O)NC(=O)[C@H](CC(=O)O)NC(=O)[C@@H]2CCCN2C(=O)[C@@H]2CCCN2C(=O)[C@H](CCCNC(=N)N)NC(=O)[C@@H](NC(=O)[C@@H](N)CCC(=O)O)CSSC[C@@H](C(=O)O)NC1=O` [C-VGB3] (H-ECRPPDDGLC-OH; disulfide 2-10), the “toxicity at this dosage (weight gain)” value ([1]; three weeks) was “not toxic”, the “mice weight vs control groups” value ([1]; two-way ANOVA) was “no significant differences” and the IC50 (4T1 MCT cells; 24 h) was 560 nM. For the same compound, the IC50 (4T1 MCT cells; 48 h) was 370 nM, the “decrease in tube branching points” value (HUVECs) was 81.46% and the “decrease in tube length” value (HUVECs) was 44.37%. For the same compound, the “decrease in tube numbers” value (HUVECs) was 58.64% and the level of apoptotic cells (4T1 cells) was 22.6%.
